One data set has as its target T1, Cytochrome P450 2B6 (Homo sapiens, UniProt P20813).
T1 sequence (P20813 whole entry): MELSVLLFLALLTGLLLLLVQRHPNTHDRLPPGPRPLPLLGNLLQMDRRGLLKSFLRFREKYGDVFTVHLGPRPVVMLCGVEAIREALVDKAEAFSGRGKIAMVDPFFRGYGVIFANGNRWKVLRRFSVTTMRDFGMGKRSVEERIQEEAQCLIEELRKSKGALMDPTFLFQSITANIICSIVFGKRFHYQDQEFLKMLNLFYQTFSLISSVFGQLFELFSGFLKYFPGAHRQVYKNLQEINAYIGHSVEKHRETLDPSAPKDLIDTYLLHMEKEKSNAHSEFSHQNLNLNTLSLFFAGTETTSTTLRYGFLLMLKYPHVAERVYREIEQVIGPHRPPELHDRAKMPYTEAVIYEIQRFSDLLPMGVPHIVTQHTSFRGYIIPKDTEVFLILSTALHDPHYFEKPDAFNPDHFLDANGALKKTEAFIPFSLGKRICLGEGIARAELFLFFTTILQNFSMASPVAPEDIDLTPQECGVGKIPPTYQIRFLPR
Description: Inhibition of CYP2B6 (unknown origin). It is filed as ADME.

Data set [1] can be described thus: Metabolic stability in rat liver microsomes assessed as compound remaining. It is filed as ADME, Microsome. (Liver microsomes are vesicles of endoplasmic reticulum, rich in cytochrome P450 enzymes.)
For another data set, the target named is T2, Cytochrome P450 2C8 (Homo sapiens, UniProt P10632).
T2 sequence (P10632 whole entry): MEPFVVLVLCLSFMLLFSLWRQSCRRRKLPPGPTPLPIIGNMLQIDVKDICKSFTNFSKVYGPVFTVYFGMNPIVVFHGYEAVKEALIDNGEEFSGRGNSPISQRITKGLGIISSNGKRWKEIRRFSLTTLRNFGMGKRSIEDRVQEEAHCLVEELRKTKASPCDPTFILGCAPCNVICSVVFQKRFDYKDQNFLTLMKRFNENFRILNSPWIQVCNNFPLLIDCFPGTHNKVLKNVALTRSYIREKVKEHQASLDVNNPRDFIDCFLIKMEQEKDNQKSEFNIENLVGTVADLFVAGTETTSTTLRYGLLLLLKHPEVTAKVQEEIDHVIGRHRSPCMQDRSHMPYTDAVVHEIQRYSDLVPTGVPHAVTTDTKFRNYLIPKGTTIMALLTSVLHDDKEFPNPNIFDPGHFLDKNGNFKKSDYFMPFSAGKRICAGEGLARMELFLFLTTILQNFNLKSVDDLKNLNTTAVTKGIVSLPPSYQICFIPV
The data set can be described thus: Inhibition of CYP2C8 (unknown origin). It is filed as ADME.

Another data set concerns the target Cytochrome P450 3A4 (Homo sapiens, UniProt P08684). Description: Inhibition of CYP3A4 (unknown origin). It is filed as ADME.
Data set [2] in a line: Plasma concentration in human MPO transgenic thioglycollate-induced peritonitis mouse model at 10 mg/kg, po measured after 6 hrs by LC/MS analysis. The class given is ADME, organism-based.
A short description of data set [3]: Protein binding in mouse plasma assessed as free fraction. The class given is ADME, cell-free.
In another data set the target is T3, Thyroid peroxidase (Homo sapiens, UniProt P07202).
T3 sequence (P07202 whole entry): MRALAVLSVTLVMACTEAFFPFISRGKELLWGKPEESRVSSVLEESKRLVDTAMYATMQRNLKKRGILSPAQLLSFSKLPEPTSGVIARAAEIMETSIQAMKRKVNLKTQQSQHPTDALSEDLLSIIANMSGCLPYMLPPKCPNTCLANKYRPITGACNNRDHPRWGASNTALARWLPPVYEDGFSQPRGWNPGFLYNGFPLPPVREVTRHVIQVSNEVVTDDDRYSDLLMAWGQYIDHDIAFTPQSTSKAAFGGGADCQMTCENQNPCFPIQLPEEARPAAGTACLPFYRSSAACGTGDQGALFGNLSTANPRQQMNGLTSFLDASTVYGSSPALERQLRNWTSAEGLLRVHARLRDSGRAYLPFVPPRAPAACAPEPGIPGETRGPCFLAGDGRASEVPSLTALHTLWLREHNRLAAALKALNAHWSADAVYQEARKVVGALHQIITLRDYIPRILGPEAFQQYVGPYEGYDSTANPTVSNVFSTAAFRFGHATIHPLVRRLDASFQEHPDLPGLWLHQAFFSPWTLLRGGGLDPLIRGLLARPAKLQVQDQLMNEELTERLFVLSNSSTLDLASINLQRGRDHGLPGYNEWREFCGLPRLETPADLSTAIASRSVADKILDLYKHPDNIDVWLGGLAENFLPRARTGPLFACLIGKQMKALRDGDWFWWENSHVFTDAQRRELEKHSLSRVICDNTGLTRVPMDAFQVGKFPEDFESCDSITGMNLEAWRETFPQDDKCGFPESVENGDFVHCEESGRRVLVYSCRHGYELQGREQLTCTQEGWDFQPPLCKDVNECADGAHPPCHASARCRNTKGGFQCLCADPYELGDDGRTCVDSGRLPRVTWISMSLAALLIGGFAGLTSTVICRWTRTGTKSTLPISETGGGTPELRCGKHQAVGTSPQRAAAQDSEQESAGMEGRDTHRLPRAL
The data set can be described thus: Inhibition of TPO (unknown origin) using 3-iodo tyrosine as substrate incubated for 10 mins.

Data set [4] can be described thus: Metabolic stability in human liver microsomes assessed as compound remaining. The class given is ADME, Microsome.
Data set [5] can be described thus: Plasma concentration in human MPO transgenic thioglycollate-induced peritonitis mouse model at 30 mg/kg, po measured after 6 hrs by LC/MS analysis. The class given is ADME, organism-based.
Data set [6] is described as follows: Permeability of compound at pH 5.5 by PAMPA assay. Conditions: read-out: permeability. The class given is ADME. (PAMPA measures passive passage across an artificial lipid membrane.)
The target of the next data set is T4, Cytochrome P450 1A2 (Homo sapiens, UniProt P05177).
T4 sequence (P05177 whole entry): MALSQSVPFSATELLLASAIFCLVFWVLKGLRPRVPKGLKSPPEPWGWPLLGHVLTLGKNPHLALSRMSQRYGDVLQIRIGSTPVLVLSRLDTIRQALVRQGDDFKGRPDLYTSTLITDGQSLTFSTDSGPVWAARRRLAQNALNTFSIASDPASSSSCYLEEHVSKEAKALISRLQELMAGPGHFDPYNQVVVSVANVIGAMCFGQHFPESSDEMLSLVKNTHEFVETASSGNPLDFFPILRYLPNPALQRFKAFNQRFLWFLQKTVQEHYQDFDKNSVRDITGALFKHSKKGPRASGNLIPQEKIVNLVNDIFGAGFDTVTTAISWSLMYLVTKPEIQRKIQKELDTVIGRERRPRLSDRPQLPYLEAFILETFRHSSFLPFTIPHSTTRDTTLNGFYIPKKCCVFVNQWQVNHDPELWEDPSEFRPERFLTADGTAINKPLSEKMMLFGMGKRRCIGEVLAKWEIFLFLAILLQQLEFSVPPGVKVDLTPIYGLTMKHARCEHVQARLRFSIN
Description: Inhibition of CYP1A2 (unknown origin). The class given is ADME.

Data set [7] can be described thus: Permeability of compound at pH 7.4 by PAMPA assay. The class given is ADME. The settings on record: read-out: permeability.
Data set [8] in a line: Metabolic stability in mouse liver microsomes assessed as compound remaining. The class given is ADME, Microsome.

Cytochrome P450 3A4, sequence (P08684 whole entry): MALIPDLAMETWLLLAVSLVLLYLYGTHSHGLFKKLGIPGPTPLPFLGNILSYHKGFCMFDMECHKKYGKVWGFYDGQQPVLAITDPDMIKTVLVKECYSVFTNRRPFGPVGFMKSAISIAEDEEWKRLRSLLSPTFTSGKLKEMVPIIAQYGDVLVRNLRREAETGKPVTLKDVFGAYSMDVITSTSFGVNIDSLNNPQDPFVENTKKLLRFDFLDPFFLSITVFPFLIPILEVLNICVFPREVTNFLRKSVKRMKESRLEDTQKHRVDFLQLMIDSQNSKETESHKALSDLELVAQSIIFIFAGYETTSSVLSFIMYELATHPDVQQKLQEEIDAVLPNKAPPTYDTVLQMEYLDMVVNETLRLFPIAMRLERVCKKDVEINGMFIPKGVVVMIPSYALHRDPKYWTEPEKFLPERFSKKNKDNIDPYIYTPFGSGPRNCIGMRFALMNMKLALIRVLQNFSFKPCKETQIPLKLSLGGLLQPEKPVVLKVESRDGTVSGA

With `Nc1cc(Cc2ccccc2)c2nn[nH]c2n1`, the IC50 against Cytochrome P450 2B6 was greater than 10 µM; at Cytochrome P450 2C8 it was greater than 10 µM; against Cytochrome P450 3A4, 6.6 µM; on Thyroid peroxidase, 2.2 µM; on Cytochrome P450 1A2 it was greater than 10 µM. Further, the Stabilty in [1] was found to be 86%; in data set [4] it was 98%; in [8], 39%. In addition, the figures for the concentration at 6 h in data set [2] and in data set [5] were 7 µM and 26 µM, respectively. The fraction unbound in data set [3] is 0.36. In addition, the Papp in data set [6] came to 42.7 ×10⁻⁶ cm/s; in data set [7], 31.3 ×10⁻⁶ cm/s.

One may read the IC50 as the point on the concentration scale where inhibition reaches its midpoint. A higher IC50 goes with weaker potency. As a reminder, the fraction unbound is the share of the substance not bound to proteins or other matrix.
